Measured values taken from paper PMC7211198, “Phase 1b study of a small molecule antagonist of human chemokine (C-C motif) receptor 2 (PF-04136309) in combination with nab-paclitaxel/gemcitabine in first-line treatment of metastatic pancreatic ductal adenocarcinoma” (Investigational New Drugs, 2019).
“And” between values parts separate entries of the source, which are not always exact repeats. Equal values may be shown once.

Legend:
[1] = test system: metastatic pancreatic ductal adenocarcinoma; assay: Antitumor response per RECIST version 1.1, mITT population; type: in vivo, human; conditions: for Best overall response: Complete response / Best overall response: Early death / Best overall response: Indeterminate / Best overall response: Objective progression / Best overall response: Partial response / Best overall response: Stable/no response / Best overall response: Unconfirmed complete response / Best overall response: Unconfirmed partial response / Objective response rate (95% exact CI): mITT; for ORR: 95% exact CI
Procedure: The modified intent-to-treat (mITT) population was defined as all patients who had received at least one dose of study medication and had measurable disease at baseline assessment (within 28 days prior to study entry). The mITT population was assessed for antitumor response.
Objective response rate (ORR) was defined as the proportion of patients with confirmed complete response (CR) or confirmed PR according to Response Evaluation Criteria In Solid Tumors, version 1.1, relative to all enrolled patients who had baseline measurable disease. Confirmed responses were those that persisted on repeat imaging ≥4 weeks after initial documentation of response. Indeterminate responses were those with no documented progression and absence of proper assessment of target lesions.
Patients without on-study radiographic tumor re-evaluation and those who died, progressed, or dropped out for any reason prior to reaching a CR or PR were counted as nonresponders in the assessment of ORR. The ORR, CR, and PR point estimates for each treatment arm were provided along with the corresponding two-sided 95% confidence intervals (CIs) using an exact method.
Imaging for tumor assessments included computed tomography (CT) or MRI scans of the chest, abdomen, and pelvis; brain CT or MRI scan for patients with known or suspected brain metastases; and bone scan and/or bone X-rays for patients with known or suspected bone metastases.

[2] = Multiple-dose plasma pharmacokinetics, cycle 1 day 15; type: in vivo, human
Procedure: The hypothetical mechanisms of action of PF-04136309 were explored by analysis of biopsies, bone marrow aspirates, and peripheral blood (pre- and post-treatment during the study). Serial blood samples were collected from patients to determine the multiple-dose PK of PF-04136309 given in combination with nab-paclitaxel/gemcitabine.
Blood samples sufficient to provide ≥1 mL of plasma were collected for measurement of PF-04136309 concentrations. Plasma PF-04136309 concentrations were quantified with a validated liquid chromatography–mass spectrometry method. PF-04136309 concentration–time data from cycle 1 day 15 were analyzed using noncompartmental methods to estimate PK parameters.

CCL2 = assay: Plasma CCL2 levels by luminex-based immunoassay; type: in vivo, human; conditions: most patients, 500 mg (n = 17) and 750 mg (n = 4) BID, over the course of study
Procedure: (§1) The levels of CD14 + CCR2+ IM or other immune-cell phenotypes in the samples from the core needle biopsy, fine-needle aspirate from primary tumor tissue, bone marrow, and peripheral blood were assessed by flow cytometry. CCL2 levels were determined using whole blood plasma by immunoassay using a luminex-based method. The ex vivo inhibition of CCL2-induced pERK by PF-04136309 was measured in whole blood using flow cytometry. Percentages of CD4+, CD8+, and CD4 + FoxP3+ T cells within CD45+ populations were evaluated by flow cytometry in paired fresh biopsy samples from three patients. Two patients provided both baseline and on-study biopsies, and one patient provided a baseline biopsy only.

[3] = test system: T cells and CCR2+ TAM in tumor biopsy; assay: Immune cells in tumor biopsy samples by flow cytometry; type: in vivo, human
Procedure: as §1

[4] = test system: metastatic pancreatic ductal adenocarcinoma; assay: Antitumor response per RECIST version 1.1, mITT population; type: in vivo, human; conditions: 500 mg group; 2 of 17 with progression events, rest censored; not an appropriate estimate
[5] = set-up: method as in PMID 27055731; conditions: cited from earlier work
[6] = 500-mg BID (n = 13), steady state
[7] = 500-mg BID group (n = 13), steady state
[8] = 750-mg BID group (n = 2), individual values

O=C(NCC(=O)N1CC[C@H](N[C@H]2CC[C@@](O)(c3ccc(-c4ncccn4)cn3)CC2)C1)c1cccc(C(F)(F)F)c1 [PF-04136309]
Best overall response: Complete response ([1]; 500 mg BID + nab-P/Gem, N = 17): 0 n (%)
Best overall response: Early death ([1]; 500 mg BID + nab-P/Gem, N = 17): 1 (5.9) n (%)
Best overall response: Indeterminate ([1]; 500 mg BID + nab-P/Gem, N = 17): 5 (29.4) n (%)
Best overall response: Objective progression ([1]; 500 mg BID + nab-P/Gem, N = 17): 3 (17.6) n (%)
Best overall response: Partial response ([1]; 500 mg BID + nab-P/Gem, N = 17): 5 (29.4) n (%)
Best overall response: Stable/no response ([1]; 500 mg BID + nab-P/Gem, N = 17): 2 (11.8) n (%)
Best overall response: Unconfirmed complete response ([1]; 500 mg BID + nab-P/Gem, N = 17): 0 n (%)
Best overall response: Unconfirmed partial response ([1]; 500 mg BID + nab-P/Gem, N = 17): 1 (5.9) n (%)
Objective response rate (95% exact CI) ([1]; 500 mg BID + nab-P/Gem, N = 17): 5 (29.4) (10.3–56.0) n (%)
ORR ([1]; 500 mg BID group (n = 17), 10.3–56.0%): 29.4%
Best overall response: Complete response ([1]; 750 mg BID + nab-P/Gem, N = 4): 0 n (%)
Best overall response: Early death ([1]; 750 mg BID + nab-P/Gem, N = 4): 0 n (%)
Best overall response: Indeterminate ([1]; 750 mg BID + nab-P/Gem, N = 4): 2 (50.0) n (%)
Best overall response: Objective progression ([1]; 750 mg BID + nab-P/Gem, N = 4): 0 n (%)
Best overall response: Partial response ([1]; 750 mg BID + nab-P/Gem, N = 4): 0 n (%)
Best overall response: Stable/no response ([1]; 750 mg BID + nab-P/Gem, N = 4): 1 (25.0) n (%)
Best overall response: Unconfirmed complete response ([1]; 750 mg BID + nab-P/Gem, N = 4): 0 n (%)
Best overall response: Unconfirmed partial response ([1]; 750 mg BID + nab-P/Gem, N = 4): 1 (25.0) n (%)
Objective response rate (95% exact CI) ([1]; 750 mg BID + nab-P/Gem, N = 4): 0 (0.0–60.2) n (%)
ORR ([1]; all 21 patients, 8.2–47.2%): 23.8%
Coefficient of variation of AUCtau [2, 6]: 30%
Coefficient of variation of Cmax [2, 6]: 44%
Coefficient of variation of Cmin [2, 6]: 57%
Mean AUCtau [2, 7]: 5873 ng·h/mL
Mean Cmax [2, 7]: 1276 ng/mL
Median Tmax ([2]; 500-mg BID, oral, with nab-paclitaxel/gemcitabine): 1.42 h
AUCtau, observed values [2, 8]: 10,600 ng·hr/mL and 15,700 ng·hr/mL
Cmax, observed values [2, 8]: 2950 ng/mL and 3390 ng/mL
Change in plasma CCL2 levels (CCL2): increase
Change in PD-1 + CD4+ and PD-1 + CD8+ cells in the tumor biopsy sample ([3]; one patient, data not shown): increase
CCR2+ TAM levels, change ([3]; two patients, 500-mg BID group, individual values, data not shown): ~4% to 3%
Change in CD4+ and CD8+ cells within CD45+ populations in fresh biopsy tumor samples ([3]; two patients, 500-mg BID group, baseline vs week 6): increase
Median progression-free survival (mPFS) [4]: 5.3 months
Proportion of patients achieving partial response vs that anticipated with FOLFIRINOX alone ([5]; phase Ib, in combination with FOLFIRINOX): significantly increased
Pulmonary events reported ([5]; single agent, non-oncology studies (N = 178) and 39 advanced PDAC patients with FOLFIRINOX): no pulmonary events
Safety and tolerability ([5]; single oral dose up to 1000 mg, repeated oral up to 500 mg BID as single agent or with FOLFIRINOX): generally safe and well tolerated
Tolerability ([5]; with FOLFIRINOX, borderline resectable and locally advanced pancreatic cancer): well-tolerated
